Experimental data published in US20240374598A1, “INHIBITORS OF HUMAN IMMUNODEFICIENCY VIRUS REPLICATION” (ViiV HEALTHCARE UK (NO.5) LIMITED, priority 2018, published 2024).

Assays:
[1] = Compound cytotoxicity, XTT-based colorimetric assay; type: cell-based; details: human; uninfected MT2 cells, day 4, XTT assay
Experimental: Compound cytotoxicity and the corresponding CC50 values were determined using the same protocol as described in the antiviral assay except that uninfected cells were used. Cytotoxicity was assessed on day 4 in uninfected MT2 cells by using a XTT (2,3-bis[2-Methoxy-4-nitro-5-sulfophenyl]-2H-tetrazolium-5-carboxyanilide inner salt)-based colorimetric assay (Sigma-Aldrich, St Louis, Mo).

[2] = test system: recombinant NL4-3 virus (nef section replaced with Renilla luciferase gene) in MT-2 cells; assay: HIV cell culture assay (antiviral activity, luciferase readout); type: cell-based; details: NL43, MT-2 cells infected for 4-5 days with recombinant NL4-3 Renilla luciferase virus
Experimental: HIV cell culture assay—MT-2 cells, 293T cells and the proviral DNA clone of NL4-3 virus were obtained from the NIH AIDS Research and Reference Reagent Program. MT-2 cells were propagated in RPMI 1640 media supplemented with 10% heat inactivated fetal bovine serum (FBS), […]. The 293T cells were propagated in DMEM media supplemented with 10% heat inactivated FBS, […]. A recombinant NL4-3 proviral clone, in which a section of the nef gene was replaced with the Renilla luciferase gene, was used to make the reference virus used in these studies. The recombinant virus was prepared through transfection of the recombinant NL4-3 proviral clone into 293T cells using Transit-293 Transfection Reagent from Mirus Bio LLC (Madison, WI). Supernatent was harvested after 2-3 days and the amount of virus present was titered in MT-2 cells using luciferase enzyme activity as a marker by measuring luciferase enzyme activity. Luciferase was quantitated using the EnduRen Live Cell Substrate from Promega (Madison, WI). Antiviral activities of compounds toward the recombinant virus were quantified by measuring luciferase activity in MT-2 cells infected for 4-5 days with the recombinant virus in the presence of serial dilutions of the compound.
The 50% effective concentration (EC50) was calculated by using the exponential form of the median effect equation where (Fa)=1/[1+(ED50/drug conc.)m] (Johnson VA, Byington RT. Infectivity Assay. In Techniques in HIV Research. ed. Aldovini A, Walker BD. 71-76. New York: Stockton Press. 1990). The 50% inhibitory concentration (EC50) was calculated by using the exponential form of the median effect equation where percent inhibition=1/[1+(EC50/drug concentration)m], where m is a parameter that reflects the slope of the concentration-response curve.

Question: With `CS(=O)(=O)Nc1nn(CC(F)F)c2c(-n3c([C@H](Cc4cc(F)cc(F)c4)NC(=O)Cn4nc(C(F)F)c5c4C(F)(F)[C@@H]4C[C@H]54)nc4cc(CCC(F)(F)F)ccc4c3=O)ccc(Cl)c12` [Example 23, N—((S)-1-(3-(4-chloro-1-(2,2-difluoroethyl)-3-(methylsulfonamido)-1H-indazol-7-yl)-4-oxo-7-(3,3,3-trifluoropropyl)-3,4-dihydroquinazolin-2-yl)-2-(3,5-difluorophenyl)ethyl)-2-((3bS,4aR)-3-(difluoromethyl)-5,5-difluoro-3b,4,4a,5-tetrahydro-1H-cyclopropa[3,4]cyclopenta[1,2-c]pyrazol-1-yl)acetamide] as the compound, how does the CC50 at 4 day [1] read?
Answer: Its CC50 at 4 day is > 1000 nM.

Question: What about the EC50 [2] of the same compound?
Answer: Its EC50 is 0.094 nM.

Question: For `O=C(Cn1nc(C(F)F)c2c1C(F)(F)[C@@H]1C[C@H]21)N[C@@H](Cc1cc(F)cc(F)c1)c1nc2cc(CCC(F)(F)F)ccc2c(=O)n1-c1ccc(Cl)c2c(NS(=O)(=O)C3CC3)nn(CC(F)F)c12` [Example 24, N—((S)-1-(3-(4-chloro-3-(cyclopropanesulfonamido)-1-(2,2-difluoroethyl)-1H-indazol-7-yl)-4-oxo-7-(3,3,3-trifluoropropyl)-3,4-dihydroquinazolin-2-yl)-2-(3,5-difluorophenyl)ethyl)-2-((3bS,4aR)-3-(difluoromethyl)-5,5-difluoro-3b,4,4a,5-tetrahydro-1H-cyclopropa[3,4]cyclopenta[1,2-c]pyrazol-1-yl)acetamide], which CC50 at 4 day [1] is on record?
Answer: The CC50 at 4 day was > 1000 nM.

Question: What about the EC50 [2] of the same compound?
Answer: The EC50 was 0.155 nM.

Question: With `CC(C)Cc1ccc2c(=O)n(-c3ccc(Cl)c4c(NS(C)(=O)=O)nn(C)c34)c([C@H](Cc3cc(F)cc(F)c3)NC(=O)Cn3nc(C(F)F)c4c3C(F)(F)[C@@H]3C[C@H]43)nc2c1` [Example 25, N—((S)-1-(3-(4-chloro-1-methyl-3-(methylsulfonamido)-1H-indazol-7-yl)-7-isobutyl-4-oxo-3,4-dihydroquinazolin-2-yl)-2-(3,5-difluorophenyl)ethyl)-2-((3bS,4aR)-3-(difluoromethyl)-5,5-difluoro-3b,4,4a,5-tetrahydro-1H-cyclopropa[3,4]cyclopenta[1,2-c]pyrazol-1-yl)acetamide] as the compound, how does the CC50 at 4 day [1] read?
Answer: Its CC50 at 4 day is > 1000 nM.

Question: And the EC50 [2]?
Answer: The EC50 was 0.167 nM.

Question: Which CC50 at 4 day [1] does the source give for `Cn1nc(NS(C)(=O)=O)c2c(Cl)ccc(-n3c([C@H](Cc4cc(F)cc(F)c4)NC(=O)Cn4nc(C(F)(F)F)c5c4C(F)(F)[C@@H]4C[C@H]54)nc4cc(C(C)(C)C)ccc4c3=O)c21` [Example 26, N—((S)-1-(7-(tert-butyl)-3-(4-chloro-1-methyl-3-(methylsulfonamido)-1H-indazol-7-yl)-4-oxo-3,4-dihydroquinazolin-2-yl)-2-(3,5-difluorophenyl)ethyl)-2-((3bS,4aR)-5,5-difluoro-3-(trifluoromethyl)-3b,4,4a,5-tetrahydro-1H-cyclopropa[3,4]cyclopenta[1,2-c]pyrazol-1-yl)acetamide] here?
Answer: Its CC50 at 4 day is > 1000 nM.

Question: What about the EC50 [2] of the same compound?
Answer: The EC50 was 0.443 nM.

Question: With `CC(C)(C)c1ccc2c(=O)n(-c3ccc(Cl)c4c(NS(=O)(=O)C5CC5)nn(CC(F)F)c34)c([C@H](Cc3cc(F)cc(F)c3)NC(=O)Cn3nc(C(F)F)c4c3C(F)(F)[C@@H]3C[C@H]43)nc2c1` [Example 27, N—((S)-1-(7-(tert-butyl)-3-(4-chloro-3-(cyclopropanesulfonamido)-1-(2,2-difluoroethyl)-1H-indazol-7-yl)-4-oxo-3,4-dihydroquinazolin-2-yl)-2-(3,5-difluorophenyl)ethyl)-2-((3bS,4aR)-3-(difluoromethyl)-5,5-difluoro-3b,4,4a,5-tetrahydro-1H-cyclopropa[3,4]cyclopenta[1,2-c]pyrazol-1-yl)acetamide] as the compound, how does the CC50 at 4 day [1] read?
Answer: Its CC50 at 4 day is > 1000 nM.

Question: And the EC50 [2]?
Answer: The EC50 was 0.61 nM.

Question: What does the source list for `Cn1nc(NS(C)(=O)=O)c2c(Cl)ccc(-n3c([C@H](Cc4cc(F)cc(F)c4)NC(=O)Cn4nc(C(F)F)c5c4C(F)(F)[C@@H]4C[C@H]54)nc4cc(C(F)(F)C(C)(C)C)ccc4c3=O)c21` [Example 29, N—((S)-1-(3-(4-chloro-1-methyl-3-(methylsulfonamido)-1H-indazol-7-yl)-7-(1,1-difluoro-2,2-dimethylpropyl)-4-oxo-3,4-dihydroquinazolin-2-yl)-2-(3,5-difluorophenyl)ethyl)-2-((3bS,4aR)-3-(difluoromethyl)-5,5-difluoro-3b,4,4a,5-tetrahydro-1H-cyclopropa[3,4]cyclopenta[1,2-c]pyrazol-1-yl)acetamide]?
Answer: CC50 at 4 day [1]: > 1000 nM; EC50 [2]: 0.115 nM

Question: Which CC50 at 4 day [1] does the source give for `CS(=O)(=O)Nc1nn(CC(F)F)c2c(-n3c([C@H](Cc4cc(F)cc(F)c4)NC(=O)Cn4nc(C(F)F)c5c4C(F)(F)[C@@H]4C[C@H]54)nc4cc(C5CC5)ccc4c3=O)ccc(Cl)c12` [Example 30, N—((S)-1-(3-(4-chloro-1-(2,2-difluoroethyl)-3-(methylsulfonamido)-1H-indazol-7-yl)-7-cyclopropyl-4-oxo-3,4-dihydroquinazolin-2-yl)-2-(3,5-difluorophenyl)ethyl)-2-((3bS,4aR)-3-(difluoromethyl)-5,5-difluoro-3b,4,4a,5-tetrahydro-1H-cyclopropa[3,4]cyclopenta[1,2-c]pyrazol-1-yl)acetamide] here?
Answer: The CC50 at 4 day was > 1000 nM.

Question: What about the EC50 [2] of the same compound?
Answer: The EC50 was 0.097 nM.

Question: For `O=C(Cn1nc(C(F)F)c2c1C(F)(F)[C@@H]1C[C@H]21)N[C@@H](Cc1cc(F)cc(F)c1)c1nc2cc(C3CC3)ccc2c(=O)n1-c1ccc(Cl)c2c(NS(=O)(=O)C3CC3)nn(CC(F)F)c12` [Example 31, N—((S)-1-(3-(4-chloro-3-(cyclopropanesulfonamido)-1-(2,2-difluoroethyl)-1H-indazol-7-yl)-7-cyclopropyl-4-oxo-3,4-dihydroquinazolin-2-yl)-2-(3,5-difluorophenyl)ethyl)-2-((3bS,4aR)-3-(difluoromethyl)-5,5-difluoro-3b,4,4a,5-tetrahydro-1H-cyclopropa[3,4]cyclopenta[1,2-c]pyrazol-1-yl)acetamide], which CC50 at 4 day [1] is on record?
Answer: Its CC50 at 4 day is > 1000 nM.

Question: What about the EC50 [2] of the same compound?
Answer: Its EC50 is 0.046 nM.

Question: Which CC50 at 4 day [1] does the source give for `Cn1nc(NS(C)(=O)=O)c2c(Cl)ccc(-n3c([C@H](Cc4cc(F)cc(F)c4)NC(=O)Cn4nc(C(F)F)c5c4C(F)(F)[C@@H]4C[C@H]54)nc4cc(C5CCCC5)ccc4c3=O)c21` [Example 32, N—((S)-1-(3-(4-chloro-1-methyl-3-(methylsulfonamido)-1H-indazol-7-yl)-7-cyclopentyl-4-oxo-3,4-dihydroquinazolin-2-yl)-2-(3,5-difluorophenyl)ethyl)-2-((3bS,4aR)-3-(difluoromethyl)-5,5-difluoro-3b,4,4a,5-tetrahydro-1H-cyclopropa[3,4]cyclopenta[1,2-c]pyrazol-1-yl)acetamide] here?
Answer: The CC50 at 4 day was > 1000 nM.

Question: What about the EC50 [2] of the same compound?
Answer: Its EC50 is 0.285 nM.

Question: With `Cn1nc(NS(C)(=O)=O)c2cccc(-n3c([C@H](Cc4cc(F)cc(F)c4)NC(=O)Cn4nc(C(F)F)c5c4C(F)(F)[C@@H]4C[C@H]54)nc4cc(C5CCCC5)ccc4c3=O)c21` [Example 33, N—((S)-1-(7-cyclopentyl-3-(1-methyl-3-(methylsulfonamido)-1H-indazol-7-yl)-4-oxo-3,4-dihydroquinazolin-2-yl)-2-(3,5-difluorophenyl)ethyl)-2-((3bS,4aR)-3-(difluoromethyl)-5,5-difluoro-3b,4,4a,5-tetrahydro-1H-cyclopropa[3,4]cyclopenta[1,2-c]pyrazol-1-yl)acetamide] as the compound, how does the CC50 at 4 day [1] read?
Answer: The CC50 at 4 day was > 1000 nM.

Question: What about the EC50 [2] of the same compound?
Answer: Its EC50 is 1.26 nM.

Question: Which CC50 at 4 day [1] does the source give for `Cn1nc(NS(C)(=O)=O)c2c(Cl)ccc(-n3c([C@H](Cc4cc(F)cc(F)c4)NC(=O)Cn4nc(C(F)F)c5c4C(F)(F)[C@@H]4C[C@H]54)nc4cc(C5CCCCC5)ccc4c3=O)c21` [Example 34, N—((S)-1-(3-(4-chloro-1-methyl-3-(methylsulfonamido)-H-indazol-7-yl)-7-cyclohexyl-4-oxo-3,4-dihydroquinazoin-2-yl)-2-(3,5-difluorophenyl)ethyl)-2-((3bS,4aR)-3-(difluoromethyl)-5,5-difluoro-3b,4,4a,5-tetrahydro-1H-cyclopropa[3,4]cyclopenta[1,2-c]pyrazol-1-yl)acetamide] here?
Answer: The CC50 at 4 day was > 1000 nM.

Question: What about the EC50 [2] of the same compound?
Answer: The EC50 was 0.597 nM.

Question: Which results are given for `COc1ccc2c(=O)n(-c3ccc(Cl)c4c(NS(C)(=O)=O)nn(C)c34)c([C@H](Cc3cc(F)cc(F)c3)NC(=O)Cn3ccc(C(C)C)n3)nc2n1` [Example 35, (S)—N-(1-(3-(4-chloro-1-methyl-3-(methylsulfonamido)-1H-indazol-7-yl)-7-methoxy-4-oxo-3,4-dihydropyrido[2,3-d]pyrimidin-2-yl)-2-(3,5-difluorophenyl)ethyl)-2-(3-isopropyl-1H-pyrazol-1-yl)acetamide]?
Answer: CC50 at 4 day [1]: > 1000 nM; EC50 [2]: 0.235 nM
